Reference: ChEMBL document CHEMBL1155972, “From natural products to achiral drug prototypes: potent thrombin inhibitors based on P2/P3 dihydropyrid-2-one core motifs” (Bioorg Med Chem Lett, 2009)

Legend:
[1] = Inhibition of bovine trypsin; set-up: species or system Bos taurus
Prothrombin = Prothrombin (Homo sapiens, UniProt P00734); assay: Inhibition of human thrombin
[2] = Dissociation constant, pKa of the compound; format: physicochemical

Structure (SMILES) | IC50 [1] | IC50 (Prothrombin) | pKa [2]
CC1=C(CC(=O)NCc2ccc(C(=N)N)cc2)C(=O)N(NS(=O)(=O)c2ccccc2)CC1 | 0.766 µM | 0.042 µM | 
COc1cccc(S(=O)(=O)NN2CCC(C)=C(CC(=O)NCc3ccc(C(=N)N)cc3)C2=O)c1 | 0.86 µM | 0.011 µM | 8.8
Cc1ccn(NS(=O)(=O)c2cccc3ccccc23)c(=O)c1CC(=O)NCc1ccc(C(=N)N)cc1 | 0.0058 µM | 17.1 µM | 
CC1=C(CC(=O)NCc2ccc(C(=N)N)cc2)C(=O)N(NS(=O)(=O)c2cc(Cl)ccc2Cl)CC1 | 1.25 µM | 0.01 µM | 
CC[C@@H](C)[C@@H](NC(=O)[C@H](O)Cc1ccccc1)C(=O)N1[C@H](C(=O)NCc2ccc(C(=N)N)cc2)C[C@@H]2CCCC[C@@H]21 |  | 0.0033 µM | 
COc1cccc(S(=O)(=O)Nn2ccc(C)c(CC(=O)NCc3ccc(C(=N)N)cc3)c2=O)c1 | 15.6 µM |  | 
Cc1ccn(NS(=O)(=O)c2ccccc2)c(=O)c1CC(=O)NCc1ccc(C(=N)N)cc1 | 5.77 µM |  | 5.9
Cc1ccc(C)c(S(=O)(=O)Nn2ccc(C)c(CC(=O)NCc3ccc(C(=N)N)cc3)c2=O)c1 | 7.13 µM |  | 
Cc1ccn(NS(=O)(=O)Cc2ccccc2)c(=O)c1CC(=O)NCc1ccc(C(=N)N)cc1 | 14.9 µM | 3.96 µM | 
N=C(N)c1ccc(CNC(=O)[C@@H]2C[C@@H]3CCCC[C@@H]3N2C(=O)[C@H](NC(=O)[C@H](O)Cc2ccccc2)C(C2CCCCC2)C2CCCCC2)cc1 |  | 0.0034 µM | 
COc1cc(C)ccc1S(=O)(=O)NN1CCC(C)=C(CC(=O)NCc2ccc(C(=N)N)cc2)C1=O | 0.117 µM | 0.044 µM | 
CC(C)[C@@H](Cl)[C@@H](NC(=O)[C@H](O)Cc1ccccc1)C(=O)N1[C@H](C(=O)NCc2ccc(C(=N)N)cc2)C[C@@H]2CCCC[C@@H]21 |  | 0.0016 µM | 
CC1=C(CC(=O)NCc2ccc(C(=N)N)cc2)C(=O)N(NS(=O)(=O)c2ccc(Cl)cc2F)CC1 | 0.683 µM | 0.106 µM | 
CC1=C(CC(=O)NCc2ccc(C(=N)N)cc2)C(=O)N(NS(=O)(=O)c2cc(C)ccc2C)CC1 | 0.374 µM | 0.006 µM | 8.7
COc1cc(C)ccc1S(=O)(=O)Nn1ccc(C)c(CC(=O)NCc2ccc(C(=N)N)cc2)c1=O | 2.02 µM |  | 6.7
CC1=C(CC(=O)NCc2ccc(C(=N)N)cc2)C(=O)N(NS(=O)(=O)c2cccc3ccccc23)CC1 | 0.0082 µM | 0.915 µM | 
CC1=C(CC(=O)NCc2ccc(C(=N)N)cc2)C(=O)N(NS(=O)(=O)c2c(C)cccc2Cl)CC1 | 0.286 µM | 0.003 µM | 
CO[C@H](COS(=O)(=O)[O-])C(=O)N[C@@H](C(=O)N1[C@H](C(=O)NCCC2=CC[N+](=C(N)N)C2)C[C@@H]2C[C@H](O)[C@@H](O)C[C@@H]21)[C@H](Cl)C(C)C [CHLORODYSINOSIN A] |  | 0.0058 µM | 
CO[C@H](COS(=O)(=O)[O-])C(=O)N[C@H](CC(C)C)C(=O)N1[C@H](C(=O)NCCC2=CC[N+](=C(N)N)C2)C[C@@H]2C[C@H](O)[C@@H](O)C[C@@H]21 [DYSINOSIN A] |  | 0.046 µM | 
